Laboratory results taken from the kinase profiling compilation of Christmann-Franck et al. (2016).

How the values were obtained:
[1] = target: RPS6KA3 KD1 (human) (UniProt P51812); experiment: KINOMEscan competition binding; conditions: compound 10.0 µM
[2] = target: MAP2K2 (human) (UniProt P36507); experiment: KINOMEscan competition binding; conditions: compound 10.0 µM
[3] = target: PHKG1 (human) (UniProt Q16816); experiment: KINOMEscan competition binding; conditions: compound 10.0 µM
[4] = target: EPHB6 (human) (UniProt O15197); experiment: KINOMEscan competition binding; conditions: compound 10.0 µM
[5] = target: PRKACB (human) (UniProt P22694); experiment: KINOMEscan competition binding; conditions: compound 10.0 µM
[6] = target: LTK (human) (UniProt P29376); experiment: KINOMEscan competition binding; conditions: compound 10.0 µM
[7] = test system: FLT3 (human), P36888 [N841I]; experiment: KINOMEscan competition binding; conditions: compound 10.0 µM
[8] = target: FLT3 (human) (UniProt P36888); experiment: KINOMEscan competition binding; conditions: compound 10.0 µM
[9] = target: MAP4K2 (human) (UniProt Q12851); experiment: KINOMEscan competition binding; conditions: compound 10.0 µM
[10] = target: CSF1R (human) (UniProt P07333); experiment: KINOMEscan competition binding; conditions: compound 10.0 µM
Chain of CSF1R (human) (P07333 whole entry, looked up): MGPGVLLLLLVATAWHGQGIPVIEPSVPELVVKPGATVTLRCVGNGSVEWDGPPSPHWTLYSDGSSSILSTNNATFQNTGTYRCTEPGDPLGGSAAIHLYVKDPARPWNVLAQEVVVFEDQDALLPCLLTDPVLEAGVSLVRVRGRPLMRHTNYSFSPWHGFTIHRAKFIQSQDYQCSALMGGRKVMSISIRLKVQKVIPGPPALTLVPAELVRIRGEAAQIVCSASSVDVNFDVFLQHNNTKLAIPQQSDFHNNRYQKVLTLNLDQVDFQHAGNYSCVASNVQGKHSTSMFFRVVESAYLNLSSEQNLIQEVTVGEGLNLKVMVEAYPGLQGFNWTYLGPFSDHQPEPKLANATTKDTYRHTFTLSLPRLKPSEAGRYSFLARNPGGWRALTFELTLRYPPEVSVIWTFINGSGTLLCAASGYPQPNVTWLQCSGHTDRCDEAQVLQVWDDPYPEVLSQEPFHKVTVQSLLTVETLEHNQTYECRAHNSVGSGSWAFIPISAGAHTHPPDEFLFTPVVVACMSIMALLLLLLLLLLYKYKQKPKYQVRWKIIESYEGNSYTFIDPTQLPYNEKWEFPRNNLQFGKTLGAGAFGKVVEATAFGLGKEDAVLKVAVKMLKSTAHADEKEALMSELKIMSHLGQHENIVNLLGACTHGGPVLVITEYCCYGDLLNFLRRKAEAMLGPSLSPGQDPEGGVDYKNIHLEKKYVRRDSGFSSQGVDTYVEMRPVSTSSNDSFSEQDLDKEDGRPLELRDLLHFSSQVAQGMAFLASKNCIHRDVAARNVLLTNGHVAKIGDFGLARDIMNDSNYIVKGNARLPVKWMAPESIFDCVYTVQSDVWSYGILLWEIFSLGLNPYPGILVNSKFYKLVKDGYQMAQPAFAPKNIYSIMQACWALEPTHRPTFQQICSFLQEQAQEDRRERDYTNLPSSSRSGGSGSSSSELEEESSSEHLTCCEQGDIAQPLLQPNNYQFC

[11] = target: TTK (human) (UniProt P33981); experiment: KINOMEscan competition binding; conditions: compound 10.0 µM
Chain of TTK (human) (P33981 whole entry, looked up): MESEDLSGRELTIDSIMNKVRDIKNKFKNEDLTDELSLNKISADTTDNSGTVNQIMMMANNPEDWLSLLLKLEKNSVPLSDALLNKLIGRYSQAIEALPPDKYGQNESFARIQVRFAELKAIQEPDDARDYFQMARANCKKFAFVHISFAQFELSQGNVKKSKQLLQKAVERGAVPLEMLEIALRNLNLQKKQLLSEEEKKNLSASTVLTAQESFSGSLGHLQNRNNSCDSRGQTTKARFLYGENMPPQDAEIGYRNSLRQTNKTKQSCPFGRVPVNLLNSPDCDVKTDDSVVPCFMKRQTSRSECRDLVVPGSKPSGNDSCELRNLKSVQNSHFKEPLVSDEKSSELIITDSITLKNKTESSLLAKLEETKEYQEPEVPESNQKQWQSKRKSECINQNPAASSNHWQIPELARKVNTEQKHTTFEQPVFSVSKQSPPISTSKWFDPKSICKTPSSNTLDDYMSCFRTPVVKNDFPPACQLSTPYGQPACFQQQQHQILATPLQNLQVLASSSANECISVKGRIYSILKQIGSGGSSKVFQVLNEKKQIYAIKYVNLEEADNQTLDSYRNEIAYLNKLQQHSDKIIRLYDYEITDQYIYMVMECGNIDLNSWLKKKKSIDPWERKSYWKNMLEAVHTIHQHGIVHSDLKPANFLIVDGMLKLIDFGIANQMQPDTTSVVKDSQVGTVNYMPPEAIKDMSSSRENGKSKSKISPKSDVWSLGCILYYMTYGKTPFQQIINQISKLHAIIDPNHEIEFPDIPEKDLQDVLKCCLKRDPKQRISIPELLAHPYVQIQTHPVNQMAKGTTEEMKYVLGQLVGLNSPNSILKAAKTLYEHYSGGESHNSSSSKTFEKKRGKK

[12] = target: MYLK4 (human) (UniProt Q86YV6); experiment: KINOMEscan competition binding; conditions: compound 10.0 µM
Chain of MYLK4 (human) (Q86YV6 whole entry, looked up): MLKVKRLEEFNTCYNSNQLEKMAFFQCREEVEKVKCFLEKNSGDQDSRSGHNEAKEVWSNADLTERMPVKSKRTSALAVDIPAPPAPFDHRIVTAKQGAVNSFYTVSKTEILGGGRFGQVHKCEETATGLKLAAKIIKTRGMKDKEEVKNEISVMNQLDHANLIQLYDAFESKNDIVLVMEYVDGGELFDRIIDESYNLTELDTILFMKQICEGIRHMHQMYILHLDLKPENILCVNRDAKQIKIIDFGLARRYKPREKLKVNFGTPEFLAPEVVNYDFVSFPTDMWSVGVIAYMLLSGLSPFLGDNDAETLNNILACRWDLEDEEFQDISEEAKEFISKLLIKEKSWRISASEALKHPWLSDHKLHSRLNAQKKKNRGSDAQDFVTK

[13] = target: AKT2 (human) (UniProt P31751); experiment: KINOMEscan competition binding; conditions: compound 10.0 µM
[14] = target: FGFR1 (human) (UniProt P11362); experiment: KINOMEscan competition binding; conditions: compound 10.0 µM
Chain of FGFR1 (human) (P11362 whole entry, looked up): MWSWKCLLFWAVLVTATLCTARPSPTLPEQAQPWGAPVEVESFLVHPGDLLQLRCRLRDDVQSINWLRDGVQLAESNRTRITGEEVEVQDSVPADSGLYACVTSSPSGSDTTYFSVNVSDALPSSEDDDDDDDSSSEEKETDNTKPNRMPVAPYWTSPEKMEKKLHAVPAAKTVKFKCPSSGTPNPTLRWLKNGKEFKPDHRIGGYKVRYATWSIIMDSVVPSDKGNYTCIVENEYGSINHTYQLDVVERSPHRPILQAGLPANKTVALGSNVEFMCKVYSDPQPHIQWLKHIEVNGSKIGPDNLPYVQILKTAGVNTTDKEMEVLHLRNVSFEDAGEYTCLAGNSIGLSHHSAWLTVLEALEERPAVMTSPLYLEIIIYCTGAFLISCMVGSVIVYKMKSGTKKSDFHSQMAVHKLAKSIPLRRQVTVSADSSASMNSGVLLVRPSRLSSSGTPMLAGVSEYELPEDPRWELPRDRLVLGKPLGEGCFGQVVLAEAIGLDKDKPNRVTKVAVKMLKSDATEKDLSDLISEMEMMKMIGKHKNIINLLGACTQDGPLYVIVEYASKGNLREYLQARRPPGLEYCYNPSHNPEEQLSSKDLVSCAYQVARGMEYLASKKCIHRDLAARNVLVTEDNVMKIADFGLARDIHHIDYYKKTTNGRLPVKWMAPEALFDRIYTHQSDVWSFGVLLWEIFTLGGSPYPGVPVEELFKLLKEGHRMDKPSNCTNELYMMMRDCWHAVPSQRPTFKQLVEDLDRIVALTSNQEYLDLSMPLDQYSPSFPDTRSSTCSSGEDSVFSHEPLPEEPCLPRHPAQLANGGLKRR

[15] = target: PRKAA1 (human) (UniProt Q13131); experiment: KINOMEscan competition binding; conditions: compound 10.0 µM
Chain of PRKAA1 (human) (Q13131 whole entry, looked up): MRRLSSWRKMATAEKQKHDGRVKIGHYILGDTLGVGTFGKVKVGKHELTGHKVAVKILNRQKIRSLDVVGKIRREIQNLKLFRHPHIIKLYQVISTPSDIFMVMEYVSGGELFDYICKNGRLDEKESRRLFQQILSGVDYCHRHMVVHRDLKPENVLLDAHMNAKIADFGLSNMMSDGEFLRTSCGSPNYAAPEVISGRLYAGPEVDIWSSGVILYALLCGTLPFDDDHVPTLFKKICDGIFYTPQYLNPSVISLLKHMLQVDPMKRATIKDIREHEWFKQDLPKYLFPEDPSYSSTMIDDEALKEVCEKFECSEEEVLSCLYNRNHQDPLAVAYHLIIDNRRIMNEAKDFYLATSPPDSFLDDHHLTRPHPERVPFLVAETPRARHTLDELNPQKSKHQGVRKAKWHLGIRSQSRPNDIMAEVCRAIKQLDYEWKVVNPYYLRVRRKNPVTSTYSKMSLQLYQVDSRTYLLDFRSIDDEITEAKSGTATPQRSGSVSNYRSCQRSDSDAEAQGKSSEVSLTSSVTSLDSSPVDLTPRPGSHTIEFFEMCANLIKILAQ

[16] = target: MAP4K5 (human) (UniProt Q9Y4K4); experiment: KINOMEscan competition binding; conditions: compound 10.0 µM
[17] = target: MARK4 (human) (UniProt Q96L34); experiment: KINOMEscan competition binding; conditions: compound 10.0 µM
[18] = target: ULK1 (human) (UniProt O75385); experiment: KINOMEscan competition binding; conditions: compound 10.0 µM
[19] = test system: KIT (human), P10721 [V559D/T670I]; experiment: KINOMEscan competition binding; conditions: compound 10.0 µM
[20] = target: NEK1 (human) (UniProt Q96PY6); experiment: KINOMEscan competition binding; conditions: compound 10.0 µM
[21] = target: PIM2 (human) (UniProt Q9P1W9); experiment: KINOMEscan competition binding; conditions: compound 10.0 µM
[22] = target: PDPK1 (human) (UniProt O15530); experiment: KINOMEscan competition binding; conditions: compound 10.0 µM
Chain of PDPK1 (human) (O15530 whole entry, looked up): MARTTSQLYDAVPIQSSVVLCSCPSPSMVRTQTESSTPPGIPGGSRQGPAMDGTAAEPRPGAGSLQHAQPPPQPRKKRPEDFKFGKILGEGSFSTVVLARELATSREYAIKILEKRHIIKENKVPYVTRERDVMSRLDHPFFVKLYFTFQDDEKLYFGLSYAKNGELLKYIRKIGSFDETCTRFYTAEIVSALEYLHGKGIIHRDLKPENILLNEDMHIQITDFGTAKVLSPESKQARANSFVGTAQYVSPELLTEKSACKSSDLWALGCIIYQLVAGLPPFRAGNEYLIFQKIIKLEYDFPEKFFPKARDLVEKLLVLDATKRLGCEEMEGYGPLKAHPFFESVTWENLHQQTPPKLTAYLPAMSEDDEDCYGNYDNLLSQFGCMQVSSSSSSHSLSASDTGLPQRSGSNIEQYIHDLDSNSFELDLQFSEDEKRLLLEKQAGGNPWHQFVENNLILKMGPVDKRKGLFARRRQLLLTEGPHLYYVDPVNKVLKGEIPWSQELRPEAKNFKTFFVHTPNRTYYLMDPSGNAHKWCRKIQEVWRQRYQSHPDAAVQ

[23] = test system: FLT3 (human), P36888 [K663Q]; experiment: KINOMEscan competition binding; conditions: compound 10.0 µM
[24] = target: MAPK11 (human) (UniProt Q15759); experiment: KINOMEscan competition binding; conditions: compound 10.0 µM
[25] = target: IKBKE (human) (UniProt Q14164); experiment: KINOMEscan competition binding; conditions: compound 10.0 µM
[26] = target: CAMK2A (human) (UniProt Q9UQM7); experiment: KINOMEscan competition binding; conditions: compound 10.0 µM
[27] = target: RPS6KA4 KD1 (human) (UniProt O75676); experiment: KINOMEscan competition binding; conditions: compound 10.0 µM
Chain of RPS6KA4 KD1 (human) (O75676 whole entry, looked up): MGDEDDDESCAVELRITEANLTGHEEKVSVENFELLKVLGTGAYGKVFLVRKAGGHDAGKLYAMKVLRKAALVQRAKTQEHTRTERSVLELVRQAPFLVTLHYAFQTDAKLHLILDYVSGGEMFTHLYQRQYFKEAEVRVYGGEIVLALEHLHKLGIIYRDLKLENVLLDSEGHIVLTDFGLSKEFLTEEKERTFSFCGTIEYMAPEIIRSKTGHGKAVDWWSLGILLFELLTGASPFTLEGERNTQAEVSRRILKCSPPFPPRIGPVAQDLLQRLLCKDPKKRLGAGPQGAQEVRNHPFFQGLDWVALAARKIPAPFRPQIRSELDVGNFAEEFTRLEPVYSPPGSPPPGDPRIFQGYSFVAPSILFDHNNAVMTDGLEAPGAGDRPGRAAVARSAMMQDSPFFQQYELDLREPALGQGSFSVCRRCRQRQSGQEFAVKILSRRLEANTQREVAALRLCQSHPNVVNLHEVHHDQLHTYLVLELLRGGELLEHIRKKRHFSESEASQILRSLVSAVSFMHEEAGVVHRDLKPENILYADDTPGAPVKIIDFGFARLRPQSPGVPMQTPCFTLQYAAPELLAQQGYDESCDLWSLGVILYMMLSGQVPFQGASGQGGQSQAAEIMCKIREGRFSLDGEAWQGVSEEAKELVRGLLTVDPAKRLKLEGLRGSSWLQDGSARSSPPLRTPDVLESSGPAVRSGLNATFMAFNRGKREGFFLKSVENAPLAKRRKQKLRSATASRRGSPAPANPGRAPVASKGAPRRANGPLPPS

[28] = target: STK35 (human) (UniProt Q8TDR2); experiment: KINOMEscan competition binding; conditions: compound 10.0 µM
[29] = target: NEK7 (human) (UniProt Q8TDX7); experiment: KINOMEscan competition binding; conditions: compound 10.0 µM
[30] = target: DYRK1A (human) (UniProt Q13627); experiment: KINOMEscan competition binding; conditions: compound 10.0 µM
[31] = test system: FLT3 (human), P36888 [D835Y]; experiment: KINOMEscan competition binding; conditions: compound 10.0 µM
[32] = target: MAPK12 (human) (UniProt P53778)
[33] = target: PKN2 (human) (UniProt Q16513)
[34] = target: STK3 (human) (UniProt Q13188)
[35] = target: PIM3 (human) (UniProt Q86V86)
[36] = target: EPHB3 (human) (UniProt P54753)
[37] = target: MAPK14 (human) (UniProt Q16539)
[38] = target: DYRK1A (human) (UniProt Q13627)
[39] = target: DYRK3 (human) (UniProt O43781)

With `COC(=O)Nc1ccc(-c2nc(N3CCOCC3)c3cnn(C4CCN(C(=O)OC)CC4)c3n2)cc1` the kinase still bound, per cent of control [1] was 76%, the kinase still bound, per cent of control [2] was 100% and the kinase still bound, per cent of control [3] was 81%. For the same compound, the kinase still bound, per cent of control [4] was 97%, the per cent of control [5] was 97% and the kinase still bound, per cent of control [6] was 87%. It also gave a kinase still bound, per cent of control [7] of 78%, a kinase still bound, per cent of control [8] of 100% and a kinase still bound, per cent of control [9] of 100%. The kinase still bound, per cent of control [10] was 90%, the kinase still bound, per cent of control [11] was 100% and the kinase still bound, per cent of control [12] was 99%. The kinase still bound, per cent of control [13] was 100%, the kinase still bound, per cent of control [14] was 100% and the kinase still bound, per cent of control [15] was 100%. It also gave a kinase still bound, per cent of control [16] of 100%, a kinase still bound, per cent of control [17] of 96% and a kinase still bound, per cent of control [18] of 84%. The kinase still bound, per cent of control [19] was 100%, the kinase still bound, per cent of control [20] was 77% and the kinase still bound, per cent of control [21] was 100%. The kinase still bound, per cent of control [22] was 85%, the kinase still bound, per cent of control [23] was 93% and the kinase still bound, per cent of control [24] was 80%. For the same compound, the kinase still bound, per cent of control [25] was 81%, the kinase still bound, per cent of control [26] was 95% and the kinase still bound, per cent of control [27] was 94%. The kinase still bound, per cent of control [28] was 91%, the kinase still bound, per cent of control [29] was 77% and the kinase still bound, per cent of control [30] was 88%. The kinase still bound, per cent of control [31] was 100%, the per cent of control ([32]; compound 1.0 µM) was 55% and the per cent of control ([32]; compound 10.0 µM) was 17%. For the same compound, the per cent of control ([33]; compound 1.0 µM) was 117%, the per cent of control ([33]; compound 10.0 µM) was 101% and the per cent of control ([34]; compound 1.0 µM) was 85%. The per cent of control ([34]; compound 10.0 µM) was 96%, the per cent of control ([35]; compound 1.0 µM) was 87% and the per cent of control ([35]; compound 10.0 µM) was 80%. For the same compound, the per cent of control ([36]; compound 1.0 µM) was 100%, the per cent of control ([36]; compound 10.0 µM) was 116% and the per cent of control ([37]; compound 1.0 µM) was 97%. For the same compound, the per cent of control ([37]; compound 10.0 µM) was 88%, the per cent of control ([38]; compound 1.0 µM) was 111% and the per cent of control ([38]; compound 10.0 µM) was 90%. The per cent of control ([39]; compound 1.0 µM) was 84% and the per cent of control ([39]; compound 10.0 µM) was 77%.
Compound `CC(C)n1nc(-c2cc3cc(O)ccc3[nH]2)c2c(N)ncnc21` has a kinase still bound, per cent of control [1] of 0.35%, a kinase still bound, per cent of control [2] of 0.4% and a kinase still bound, per cent of control [3] of 50%. For the same compound, the kinase still bound, per cent of control [4] was 5.3%, the per cent of control [5] was 65% and the kinase still bound, per cent of control [6] was 16%. For the same compound, the kinase still bound, per cent of control [7] was 5%, the kinase still bound, per cent of control [8] was 40% and the kinase still bound, per cent of control [9] was 0%. For the same compound, the kinase still bound, per cent of control [10] was 33%, the kinase still bound, per cent of control [11] was 9.2% and the kinase still bound, per cent of control [12] was 43%. For the same compound, the kinase still bound, per cent of control [13] was 100%, the kinase still bound, per cent of control [14] was 8.5% and the kinase still bound, per cent of control [15] was 43%. For the same compound, the kinase still bound, per cent of control [16] was 72%, the kinase still bound, per cent of control [17] was 82% and the kinase still bound, per cent of control [18] was 86%. The kinase still bound, per cent of control [19] was 30%, the kinase still bound, per cent of control [20] was 61% and the kinase still bound, per cent of control [21] was 0.6%. It also gave a kinase still bound, per cent of control [22] of 96%, a kinase still bound, per cent of control [23] of 27% and a kinase still bound, per cent of control [24] of 100%. The kinase still bound, per cent of control [25] was 70%, the kinase still bound, per cent of control [26] was 53% and the kinase still bound, per cent of control [27] was 100%. It also gave a kinase still bound, per cent of control [29] of 100%, a kinase still bound, per cent of control [30] of 27% and a kinase still bound, per cent of control [31] of 7%. The per cent of control ([32]; compound 1.0 µM) was 96%, the per cent of control ([32]; compound 10.0 µM) was 72% and the per cent of control ([33]; compound 1.0 µM) was 68%. The per cent of control ([33]; compound 10.0 µM) was 22%, the per cent of control ([35]; compound 1.0 µM) was 59% and the per cent of control ([35]; compound 10.0 µM) was 13%. It also gave a per cent of control ([36]; compound 1.0 µM) of 18%, a per cent of control ([36]; compound 10.0 µM) of 5% and a per cent of control ([37]; compound 1.0 µM) of 95%. For the same compound, the per cent of control ([37]; compound 10.0 µM) was 90%, the per cent of control ([38]; compound 1.0 µM) was 84% and the per cent of control ([38]; compound 10.0 µM) was 55%. For the same compound, the per cent of control ([39]; compound 1.0 µM) was 10% and the per cent of control ([39]; compound 10.0 µM) was 2%.
`CCC(=O)N1CCN(c2ccc(-n3c(=O)ccc4cnc5ccc(-c6cnc7ccccc7c6)cc5c43)cc2C(F)(F)F)CC1` gave a kinase still bound, per cent of control [1] of 38%, a kinase still bound, per cent of control [2] of 100% and a kinase still bound, per cent of control [3] of 100%. The kinase still bound, per cent of control [4] was 80%, the per cent of control [5] was 100% and the kinase still bound, per cent of control [6] was 77%. The kinase still bound, per cent of control [7] was 8.8%, the kinase still bound, per cent of control [8] was 16% and the kinase still bound, per cent of control [9] was 35%. For the same compound, the kinase still bound, per cent of control [10] was 24%, the kinase still bound, per cent of control [11] was 9.6% and the kinase still bound, per cent of control [12] was 83%. The kinase still bound, per cent of control [13] was 100%, the kinase still bound, per cent of control [14] was 96% and the kinase still bound, per cent of control [15] was 91%. For the same compound, the kinase still bound, per cent of control [16] was 8.1%, the kinase still bound, per cent of control [17] was 100% and the kinase still bound, per cent of control [18] was 100%. The kinase still bound, per cent of control [20] was 89%, the kinase still bound, per cent of control [21] was 62% and the kinase still bound, per cent of control [22] was 100%. It also gave a kinase still bound, per cent of control [23] of 23%, a kinase still bound, per cent of control [24] of 53% and a kinase still bound, per cent of control [25] of 87%. The kinase still bound, per cent of control [26] was 93%, the kinase still bound, per cent of control [27] was 100% and the kinase still bound, per cent of control [28] was 18%. The kinase still bound, per cent of control [29] was 90%, the kinase still bound, per cent of control [30] was 71% and the kinase still bound, per cent of control [31] was 16%. The per cent of control ([32]; compound 1.0 µM) was 103%, the per cent of control ([32]; compound 10.0 µM) was 129% and the per cent of control ([33]; compound 1.0 µM) was 97%. It also gave a per cent of control ([33]; compound 10.0 µM) of 114%, a per cent of control ([34]; compound 1.0 µM) of 97% and a per cent of control ([34]; compound 10.0 µM) of 79%. The per cent of control ([35]; compound 1.0 µM) was 85%, the per cent of control ([35]; compound 10.0 µM) was 30% and the per cent of control ([36]; compound 1.0 µM) was 115%. It also gave a per cent of control ([36]; compound 10.0 µM) of 94%, a per cent of control ([37]; compound 1.0 µM) of 95% and a per cent of control ([37]; compound 10.0 µM) of 99%. For the same compound, the per cent of control ([38]; compound 1.0 µM) was 92%, the per cent of control ([38]; compound 10.0 µM) was 75% and the per cent of control ([39]; compound 1.0 µM) was 88%. The per cent of control ([39]; compound 10.0 µM) was 52%.
